These results are taken from PubChem BioAssay (NCI).

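Five compound concentrations were applied to cells in 96-well plates for 48 hours; endpoints were derived by simple linear interpolation of the resulting dose-response curve. GI50 is the concentration that inhibits growth by half. Definition used: TGI = concentration required for complete inhibition of growth.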

One test has as its system SN12C renal. The experiment in a line: inhibition of tumour cell growth, NCI panel, 48 h.
As for `O=C1NNC=Nc2ccc(cc2)S(=O)(=O)c2ccc(cc2)N=CNNC1=O`, the TGI was > 100 µM.

`CC1OC(O[C@H]2C[C@@H](O)[C@]3(CO)[C@H]4[C@H](O)C[C@]5(C)[C@@H](C6=CC(=O)OC6)CC[C@]5(O)[C@@H]4CC[C@]3(O)C2)C(O)C(O)C1O` (stereo not given in full): the GI50 is 20.6 µM and the TGI is 40.6 µM.

Turning to `O=C1/C(=C/c2ccc(Br)cc2)C=C(c2ccccc2)N1CCc1ccccc1`, the GI50 was 2.15 µM and the TGI was 20.4 µM.

As for `CSc1ccc(C2=NN(C(C)=O)C(c3cc(C)cs3)C2)cc1` (stereo not given), the GI50 is 26.2 µM and the TGI is > 100 µM.

Turning to `CCCCC(=O)OCC1OC(n2cnc3c(=S)nc[nH]c32)C(OC(=O)CCCC)C1OC(=O)CCCC` (stereo not given), the GI50 was 2.78 µM and the TGI is > 100 µM.

For `O=c1oc2ccc(F)cc2c(=O)n1-c1ccc(F)cc1F`, the GI50 is 2.72 µM and the TGI amounted to 13.7 µM.

As for `O=C(O)CCCCC(CCSCc1ccccc1)SCc1ccccc1` (stereo not given), the GI50 was 41.4 µM and the TGI is > 100 µM.

Turning to `CC1=C(CCCNS(C)(=O)=O)C2=C(C)C3(CC3)[C@@](C)(O)C(=O)C2=C1`, the GI50 was 1.78 µM and the TGI is > 100 µM.

For the compound `O=C1CNCCCN2CCN(CCCNCC(=O)Nc3ccc(cc3)S(=O)(=O)c3ccc(cc3)NC(=O)CNCCCN3CCN(CCCNCC(=O)Nc4ccc(cc4)S(=O)(=O)c4ccc(cc4)N1)CC3)CC2`, the TGI was > 80.9 µM.

As for `N#Cc1ccc(C#Cc2ccccc2C#CCCCCO)cc1`, the GI50 was 17.7 µM and the TGI was 31.8 µM.

With `O=NN(Cc1ccc(Cl)cc1)C(C(=O)O)c1ccccc1` (stereo not given), the TGI is > 100 µM.

The subject of another test is SK-MEL-2 melanoma. The experiment in a line: inhibition of tumour cell growth, NCI panel, 48 h.
In the case of `O=C1NNC=Nc2ccc(cc2)S(=O)(=O)c2ccc(cc2)N=CNNC1=O`, the TGI was > 100 µM.

As for `CC1OC(O[C@H]2C[C@@H](O)[C@]3(CO)[C@H]4[C@H](O)C[C@]5(C)[C@@H](C6=CC(=O)OC6)CC[C@]5(O)[C@@H]4CC[C@]3(O)C2)C(O)C(O)C1O` (stereo not given in full), the GI50 is 20.2 µM and the TGI is 44.8 µM.

For the compound `O=C1/C(=C/c2ccc(Br)cc2)C=C(c2ccccc2)N1CCc1ccccc1`, the GI50 is 4.47 µM and the TGI is 27.2 µM.

On to `CSc1ccc(C2=NN(C(C)=O)C(c3cc(C)cs3)C2)cc1` (stereo not given), for which the GI50 was 39 µM and the TGI was > 100 µM.

For `CCCCC(=O)OCC1OC(n2cnc3c(=S)nc[nH]c32)C(OC(=O)CCCC)C1OC(=O)CCCC` (stereo not given), the GI50 is 1.61 µM and the TGI was > 78.7 µM.

With `O=c1oc2ccc(F)cc2c(=O)n1-c1ccc(F)cc1F`, the GI50 was 1.98 µM and the TGI was determined as 5.04 µM.

As to `O=C(O)CCCCC(CCSCc1ccccc1)SCc1ccccc1` (stereo not given), the GI50 is 27.5 µM and the TGI came to 67.6 µM.

As to `CC1=C(CCCNS(C)(=O)=O)C2=C(C)C3(CC3)[C@@](C)(O)C(=O)C2=C1`, the GI50 is 1.67 µM and the TGI was determined as 4.13 µM.

The compound `O=C1CNCCCN2CCN(CCCNCC(=O)Nc3ccc(cc3)S(=O)(=O)c3ccc(cc3)NC(=O)CNCCCN3CCN(CCCNCC(=O)Nc4ccc(cc4)S(=O)(=O)c4ccc(cc4)N1)CC3)CC2` yielded a TGI of 90.1 µM.

For the compound `N#Cc1ccc(C#Cc2ccccc2C#CCCCCO)cc1`, the GI50 was 17.1 µM and the TGI turned out to be 36.4 µM.

On to `O=NN(Cc1ccc(Cl)cc1)C(C(=O)O)c1ccccc1` (stereo not given), for which the TGI is > 100 µM.

Another test relates to RXF 393 renal. The experiment in a line: inhibition of tumour cell growth, NCI panel, 48 h.
As to `O=C1NNC=Nc2ccc(cc2)S(=O)(=O)c2ccc(cc2)N=CNNC1=O`, the TGI was > 100 µM.

Turning to `CC1OC(O[C@H]2C[C@@H](O)[C@]3(CO)[C@H]4[C@H](O)C[C@]5(C)[C@@H](C6=CC(=O)OC6)CC[C@]5(O)[C@@H]4CC[C@]3(O)C2)C(O)C(O)C1O` (stereo not given in full), the GI50 was 27.5 µM and the TGI was 75.6 µM.

On to `O=C1/C(=C/c2ccc(Br)cc2)C=C(c2ccccc2)N1CCc1ccccc1`, for which the GI50 is 1.26 µM and the TGI amounted to 3.78 µM.

Take `CSc1ccc(C2=NN(C(C)=O)C(c3cc(C)cs3)C2)cc1` (stereo not given): the GI50 is 56.7 µM and the TGI is > 100 µM.

For the compound `CCCCC(=O)OCC1OC(n2cnc3c(=S)nc[nH]c32)C(OC(=O)CCCC)C1OC(=O)CCCC` (stereo not given), the GI50 was > 71.4 µM and the TGI was > 100 µM.

`O=c1oc2ccc(F)cc2c(=O)n1-c1ccc(F)cc1F`: the GI50 was 2.52 µM and the TGI worked out at 6.99 µM.

For the compound `O=C(O)CCCCC(CCSCc1ccccc1)SCc1ccccc1` (stereo not given), the GI50 was 27.3 µM and the TGI is > 100 µM.

Consider `CC1=C(CCCNS(C)(=O)=O)C2=C(C)C3(CC3)[C@@](C)(O)C(=O)C2=C1`, for which the GI50 is 0.199 µM and the TGI is 0.419 µM.

On to `O=C1CNCCCN2CCN(CCCNCC(=O)Nc3ccc(cc3)S(=O)(=O)c3ccc(cc3)NC(=O)CNCCCN3CCN(CCCNCC(=O)Nc4ccc(cc4)S(=O)(=O)c4ccc(cc4)N1)CC3)CC2`, for which the TGI was > 70.2 µM.

As for `N#Cc1ccc(C#Cc2ccccc2C#CCCCCO)cc1`, the GI50 was 7.05 µM and the TGI amounted to 24.4 µM.

For `O=NN(Cc1ccc(Cl)cc1)C(C(=O)O)c1ccccc1` (stereo not given), the TGI was > 100 µM.

The subject of another test is U251 CNS. The experiment in a line: inhibition of tumour cell growth, NCI panel, 48 h.
For the compound `O=C1NNC=Nc2ccc(cc2)S(=O)(=O)c2ccc(cc2)N=CNNC1=O`, the TGI was > 100 µM.

Regarding `CC1OC(O[C@H]2C[C@@H](O)[C@]3(CO)[C@H]4[C@H](O)C[C@]5(C)[C@@H](C6=CC(=O)OC6)CC[C@]5(O)[C@@H]4CC[C@]3(O)C2)C(O)C(O)C1O` (stereo not given in full), the GI50 is 18.8 µM and the TGI was found to be 33.7 µM.

Regarding `O=C1/C(=C/c2ccc(Br)cc2)C=C(c2ccccc2)N1CCc1ccccc1`, the GI50 was 0.761 µM and the TGI is 10.1 µM.

With `CSc1ccc(C2=NN(C(C)=O)C(c3cc(C)cs3)C2)cc1` (stereo not given), the GI50 is 32.8 µM and the TGI was > 100 µM.

Turning to `CCCCC(=O)OCC1OC(n2cnc3c(=S)nc[nH]c32)C(OC(=O)CCCC)C1OC(=O)CCCC` (stereo not given), the GI50 is 13.4 µM and the TGI is > 100 µM.

Regarding `O=c1oc2ccc(F)cc2c(=O)n1-c1ccc(F)cc1F`, the GI50 is 3.26 µM and the TGI came to 38.8 µM.

As for `O=C(O)CCCCC(CCSCc1ccccc1)SCc1ccccc1` (stereo not given), the GI50 is 47.9 µM and the TGI is > 100 µM.

Turning to `CC1=C(CCCNS(C)(=O)=O)C2=C(C)C3(CC3)[C@@](C)(O)C(=O)C2=C1`, the GI50 was 2.32 µM and the TGI is > 100 µM.

Turning to `O=C1CNCCCN2CCN(CCCNCC(=O)Nc3ccc(cc3)S(=O)(=O)c3ccc(cc3)NC(=O)CNCCCN3CCN(CCCNCC(=O)Nc4ccc(cc4)S(=O)(=O)c4ccc(cc4)N1)CC3)CC2`, the TGI is > 61.8 µM.

On to `N#Cc1ccc(C#Cc2ccccc2C#CCCCCO)cc1`, for which the GI50 is 14.5 µM and the TGI worked out at 27.5 µM.

For `O=NN(Cc1ccc(Cl)cc1)C(C(=O)O)c1ccccc1` (stereo not given), the TGI is > 100 µM.

The test system of the next test is MDA-MB-435. The experiment in a line: inhibition of tumour cell growth, NCI panel, 48 h.
Consider `O=C1NNC=Nc2ccc(cc2)S(=O)(=O)c2ccc(cc2)N=CNNC1=O`, for which the TGI was > 100 µM.

Take `CC1OC(O[C@H]2C[C@@H](O)[C@]3(CO)[C@H]4[C@H](O)C[C@]5(C)[C@@H](C6=CC(=O)OC6)CC[C@]5(O)[C@@H]4CC[C@]3(O)C2)C(O)C(O)C1O` (stereo not given in full): the GI50 was 19.5 µM and the TGI was 38.6 µM.

As to `O=C1/C(=C/c2ccc(Br)cc2)C=C(c2ccccc2)N1CCc1ccccc1`, the GI50 was 8.38 µM and the TGI is > 100 µM.

For the compound `CSc1ccc(C2=NN(C(C)=O)C(c3cc(C)cs3)C2)cc1` (stereo not given), the GI50 is 23.4 µM and the TGI is > 100 µM.

Take `CCCCC(=O)OCC1OC(n2cnc3c(=S)nc[nH]c32)C(OC(=O)CCCC)C1OC(=O)CCCC` (stereo not given): the GI50 was 2.21 µM and the TGI is > 100 µM.

For the compound `O=c1oc2ccc(F)cc2c(=O)n1-c1ccc(F)cc1F`, the GI50 was 3.21 µM and the TGI came to 14.6 µM.

Take `O=C(O)CCCCC(CCSCc1ccccc1)SCc1ccccc1` (stereo not given): the GI50 is > 73.7 µM and the TGI is > 100 µM.

Turning to `CC1=C(CCCNS(C)(=O)=O)C2=C(C)C3(CC3)[C@@](C)(O)C(=O)C2=C1`, the GI50 is 1.99 µM and the TGI stood at 5.41 µM.

In the case of `O=C1CNCCCN2CCN(CCCNCC(=O)Nc3ccc(cc3)S(=O)(=O)c3ccc(cc3)NC(=O)CNCCCN3CCN(CCCNCC(=O)Nc4ccc(cc4)S(=O)(=O)c4ccc(cc4)N1)CC3)CC2`, the TGI is > 58.8 µM.

With `N#Cc1ccc(C#Cc2ccccc2C#CCCCCO)cc1`, the GI50 is 18.9 µM and the TGI is 35.6 µM.

`O=NN(Cc1ccc(Cl)cc1)C(C(=O)O)c1ccccc1` (stereo not given): the TGI is > 100 µM.
